Active and inactive are the calls of the source. No cut-off for these calls is given here.
What was measured:
[1] = Toxicity in BALB/c mouse assessed as change in body weight at 70 mg/kg, iv measured once every two days for 7 days; type: organism-based; conditions: in vivo, 168 h, time 7 day
A-375 [2] = assay: Antitumor activity against human A-375 cells implanted in BALB/c mouse assessed as tumor growth inhibition at 70 mg/kg, ip measured once every two days for 14 days; type: functional, organism-based; conditions: time 14.0 day
A-375 [3] = assay: Antitumor activity against human A-375 cells implanted in BALB/c mouse assessed as reduction in tumor weight at 70 mg/kg, ip measured once every two days for 14 days; type: functional, organism-based; conditions: time 14.0 day
A-375 [4] = assay: Antitumor activity against human A-375 cells implanted in BALB/c mouse assessed as shrinkage of tumor tissue at 70 mg/kg, ip measured once every two days for 14 days; type: functional, organism-based; conditions: time 14.0 day

CN(C)/N=N/c1[nH]cnc1C(N)=O [DACARBAZINE]
Activity [1]: Toxic
Activity (A-375 [2]): Active
Activity (A-375 [3]): Active
Activity (A-375 [4]): Active

From ChEMBL document CHEMBL5120920, “A Mitochondria-Targeted Phenylbutyric Acid Prodrug Confers Drastically Improved Anticancer Activities” (J Med Chem, 2022)
